For orientation: IC50 means the point on the concentration scale where inhibition reaches its midpoint.

The source of these data is patent publication US12398154B2, “Azaquinazoline pan-KRas inhibitors” (Mirati Therapeutics, Inc., priority 2020, dated 2025).

The target in one assay is T1, KRas G13D (Homo sapiens, UniProt P01116, G13D).
T1 construct: Biotinylated KRas (corresponding to amino acids 1-169, produced at Accelegan Inc.); biotin (biotinylated); purchased Accelegan Inc
Briefly: KRas binding assay (TR-FRET displacement). On the technique in general: Time-resolved FRET reads energy transfer from a long-lived donor to a nearby acceptor.

The target in the next assay is T2, KRas Q61H (Homo sapiens, UniProt P01116, Q61H).
T2 construct: Biotinylated KRas (corresponding to amino acids 1-169, produced at Accelegan Inc.); biotin (biotinylated); purchased Accelegan Inc
T2 sequence (P01116 1-169 isoform P01116-2 Q61H): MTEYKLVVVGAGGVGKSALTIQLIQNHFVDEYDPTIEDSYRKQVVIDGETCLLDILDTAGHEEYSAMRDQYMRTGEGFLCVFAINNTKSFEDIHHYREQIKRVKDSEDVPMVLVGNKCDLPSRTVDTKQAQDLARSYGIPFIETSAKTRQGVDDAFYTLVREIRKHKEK
Briefly: KRas binding assay (TR-FRET displacement).

Assay [1] concerns phospho-ERK in AsPC-1 (G12D) cells. Briefly: Inhibition of KRas-mediated phosphorylation of ERK (in-cell western). In kind it is cell-based. The note with it: Homo sapiens, ASPC1, 3 h, 3 hours compound, phospho-ERK normalized to GAPDH. The procedure, abridged: (§1)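 IC50 came from 4-parameter dose-response fits of phospho-ERK (Thr202/Tyr204)/GAPDH signal, expressed as % DMSO control. Compounds were applied for 3 h at 0.5% DMSO before fixation, methanol permeabilization and antibody imaging by in-cell western.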

For assay [2], the system named is phospho-ERK in NCI-H460 (Q61H) cells. The assay is described as above. The class given is cell-based. The following applies: Homo sapiens, NCI-H460, 3 h, 3 hours compound, phospho-ERK normalized to GAPDH. The procedure, abridged:
as §1

In assay [3] the test system is phospho-ERK in NCI-H727 (G12V) cells. The description is as above. In kind it is cell-based. The following applies: Homo sapiens, NCI-H727, 3 h, 3 hours compound, phospho-ERK normalized to GAPDH. The procedure, abridged:
as §1

The next assay has as its target KRas G12D (Homo sapiens, UniProt P01116, G12D). Briefly: biochemical.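 Note: TR-FRET displacement binding assay on KRas, read after a one-hour incubation at room temperature, IC50 fitted from percent-of-control values.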
The next assay concerns the target KRas G12V (Homo sapiens, UniProt P01116, G12V). In words: biochemical.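 Note: KRas binding measured by TR-FRET displacement at room temperature, IC50 fitted from percent of control values.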
A further assay deals with KRas G12R (Homo sapiens, UniProt P01116, G12R). In words: biochemical.
KRas G12R, sequence (P01116 1-169 isoform P01116-2 G12R): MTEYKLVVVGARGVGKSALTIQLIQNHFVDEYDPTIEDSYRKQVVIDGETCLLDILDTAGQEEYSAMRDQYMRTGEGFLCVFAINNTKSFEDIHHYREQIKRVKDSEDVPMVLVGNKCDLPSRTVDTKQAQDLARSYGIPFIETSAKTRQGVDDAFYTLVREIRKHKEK
In the next assay the target is KRas G12A (Homo sapiens, UniProt P01116, G12A). In words: biochemical.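 Note: binding to KRas measured by TR-FRET displacement after one hour at room temperature, IC50 from a four-parameter fit of percent-of-control values.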
KRas G12A, sequence (P01116 1-169 isoform P01116-2 G12A): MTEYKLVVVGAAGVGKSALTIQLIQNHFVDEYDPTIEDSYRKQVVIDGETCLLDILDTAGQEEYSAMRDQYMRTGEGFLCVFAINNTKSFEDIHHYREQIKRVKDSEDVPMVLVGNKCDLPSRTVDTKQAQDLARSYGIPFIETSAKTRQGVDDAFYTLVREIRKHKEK
The target in the next assay is KRas G12S (Homo sapiens, UniProt P01116, G12S). Briefly: biochemical.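 Note: TR-FRET displacement binding to KRas, read after one hour incubation at room temperature, IC50 from four-parameter fit of percent of control.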
KRas G12S, sequence (P01116 1-169 isoform P01116-2 G12S): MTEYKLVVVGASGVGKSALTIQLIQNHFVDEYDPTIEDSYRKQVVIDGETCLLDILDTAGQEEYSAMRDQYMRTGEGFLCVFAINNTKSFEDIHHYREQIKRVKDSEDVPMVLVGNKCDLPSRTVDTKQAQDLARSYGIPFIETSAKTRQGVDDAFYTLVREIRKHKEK
The target in a further assay is KRas G12C (Homo sapiens, UniProt P01116, G12C). In words: biochemical.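 Note: binding to KRas assessed by TR-FRET displacement after one hour incubation at room temperature, potency fitted from percent-of-control values.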
KRas G12C, sequence (P01116 1-169 isoform P01116-2 G12C): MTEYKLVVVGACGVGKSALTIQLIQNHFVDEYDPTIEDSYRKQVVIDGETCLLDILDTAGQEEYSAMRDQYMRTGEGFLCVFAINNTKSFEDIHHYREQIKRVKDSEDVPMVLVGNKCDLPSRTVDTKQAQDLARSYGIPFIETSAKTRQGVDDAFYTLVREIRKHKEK
The target in the next assay is KRas WT (Homo sapiens, UniProt P01116). Briefly: biochemical.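 Note: binding to KRas read as TR-FRET displacement after a one-hour room-temperature incubation, IC50 derived from percent-of-control values.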
KRas WT, sequence (P01116 1-169 isoform P01116-2): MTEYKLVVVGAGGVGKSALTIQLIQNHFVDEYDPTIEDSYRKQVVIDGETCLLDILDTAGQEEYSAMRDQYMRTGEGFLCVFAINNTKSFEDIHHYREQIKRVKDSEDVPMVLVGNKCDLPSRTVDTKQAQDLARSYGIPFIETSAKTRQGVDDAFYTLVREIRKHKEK
A further assay concerns pERK in PSN1 cells. Briefly: Inhibition of KRas phosphorylation of ERK (Cisbio HTRF pERK assay). The following applies: Homo sapiens, PSN1, 3 h, read-out: Inhibition (HTRF IC50) of KRas-mediated Phosphorylation of ERK, PSN1.
For a further assay, the system named is pERK in ASPC1 cells. Described as above. The note with it: Homo sapiens, ASPC1, read-out: Inhibition (HTRF IC50) of KRas-mediated Phosphorylation of ERK, AsPC-1.
A further assay concerns pERK in A549 cells. Described as above. The note with it: Homo sapiens, A549, read-out: Inhibition (HTRF IC50) of KRas-mediated Phosphorylation of ERK, A549.
A further assay has as its system pERK in MKN1 cells. Described as above. The note with it: Homo sapiens, MKN-1, 3 h, read-out: Inhibition (HTRF IC50) of KRas-mediated Phosphorylation of ERK, MKN1.
The test system of a further assay is pERK in H727 cells. The description is as above. The note with it: Homo sapiens, NCI-H727, read-out: Inhibition (HTRF IC50) of KRas-mediated Phosphorylation of ERK, H727.
The test system of a further assay is pERK in HCT116 cells. The assay is described as above. The following applies: Homo sapiens, HCT-116, read-out: Inhibition (HTRF IC50) of KRas-mediated Phosphorylation of ERK, HCT116.
The next assay concerns pERK in H460 cells. Described as above. The note with it: Homo sapiens, NCI-H460, read-out: Inhibition (HTRF IC50) of KRas-mediated Phosphorylation of ERK, H460.

KRas G12V, sequence (P01116 1-169 isoform P01116-2 G12V): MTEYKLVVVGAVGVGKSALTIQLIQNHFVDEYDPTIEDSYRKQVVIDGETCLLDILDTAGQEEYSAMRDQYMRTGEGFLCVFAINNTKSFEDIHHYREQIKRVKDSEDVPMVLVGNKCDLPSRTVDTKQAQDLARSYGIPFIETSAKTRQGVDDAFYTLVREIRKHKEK
KRas G12D, sequence (P01116 1-169 isoform P01116-2 G12D): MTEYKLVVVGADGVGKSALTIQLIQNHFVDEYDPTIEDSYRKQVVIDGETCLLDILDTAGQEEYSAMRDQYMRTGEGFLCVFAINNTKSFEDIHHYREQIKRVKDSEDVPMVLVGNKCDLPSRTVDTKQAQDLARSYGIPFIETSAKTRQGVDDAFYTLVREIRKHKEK
T1 sequence (P01116 1-169 isoform P01116-2 G13D): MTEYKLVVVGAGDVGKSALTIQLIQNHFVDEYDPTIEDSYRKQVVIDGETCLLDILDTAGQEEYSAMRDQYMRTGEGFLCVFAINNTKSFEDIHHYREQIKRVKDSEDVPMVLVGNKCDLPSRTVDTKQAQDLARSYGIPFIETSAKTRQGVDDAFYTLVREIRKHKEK

In the case of `C[C@H]1C[C@H]1c1c(Cl)cc2[nH]ncc2c1-c1ncc2c(N3CCC[C@@](C)(O)C3)nc(OC[C@@]34CCCN3C[C@H](F)C4)nc2c1F` (racemic) [Example 153, (3R)-1-(7-(6-chloro-5-(2-methylcyclopropyl)-1H-indazol-4-yl)-8-fluoro-2-(((2R,7aS)-2-fluorotetrahydro-1H-pyrrolizin-7a(5H)-yl)methoxy)pyrido[4,3-d]pyrimidin-4-yl)-3-methylpiperidin-3-ol], the IC50 on KRas G13D turned out to be 8 nM; at KRas Q61H, 7 nM; in [1], 233 nM; in assay [2], 306 nM; in assay [3], 500 nM; at KRas G12D it was 0.006 µM. The IC50 against KRas G12V came to 0.005 µM; against KRas G12R, 0.01 µM; on KRas G12A, 0.007 µM; against KRas G12S, 0.007 µM; at KRas G12C, 0.007 µM; against KRas WT, 0.006 µM.

In the case of `CCc1c(F)ccc2cc(O)cc(-c3ncc4c(N5CCC[C@@](C)(O)C5)nc(OC[C@@]56CCCN5C[C@H](F)C6)nc4c3F)c12` [Example 5], the values for the IC50 in the assay on pERK in PSN1 cells, with pERK in ASPC1 cells and with pERK in A549 cells were 0.364 µM, 0.002 µM and 0.002 µM, respectively.

As to `CCc1c(F)ccc2cc(O)cc(-c3ncc4c(N5CCCCC(S(C)(=O)=O)C5)nc(OC[C@@]56CCCN5C[C@H](F)C6)nc4c3F)c12` (stereo partly drawn) [Example 308, 5-ethyl-6-fluoro-4-(8-fluoro-2-(((2R,7aS)-2-fluorohexahydro-1H-pyrrolizin-7a-yl)methoxy)-4-(3-(methylsulfonyl)azepan-1-yl)pyrido[4,3-d]pyrimidin-7-yl)naphthalen-2-ol], the IC50 turned out to be 489 nM in assay [1]; 372 nM in assay [2]; 627 nM in [3]; 0.006 µM against KRas G12D; 0.004 µM against KRas G12V; 0.01 µM against KRas G12R. In addition, the IC50 in the assay on pERK in MKN1 cells is 0.04 µM; in the assay with pERK in PSN1 cells, at least 10 µM; in the assay with pERK in ASPC1 cells it was 0.155 µM; in the assay with pERK in H727 cells it was 0.278 µM; with pERK in HCT116 cells it was 0.284 µM.

With `CN(C)CC1(COc2nc(N3CCCC4(CNS(=O)(=O)N4)C3)c3cnc(-c4cc(O)cc5ccc(F)c(Cl)c45)c(F)c3n2)CC1` (centres unmarked) [Example 428, 7-(7-(8-chloro-7-fluoro-3-hydroxynaphthalen-1-yl)-2-((1-((dimethylamino)methyl)cyclopropyl)methoxy)-8-fluoropyrido[4,3-d]pyrimidin-4-yl)-2-thia-1,3,7-triazaspiro[4.5]decane 2,2-dioxide], the IC50 against KRas G12D is at most 0.002 µM; on KRas G12V, at most 0.002 µM; at KRas G12R, at most 0.002 µM; in the assay with pERK in MKN1 cells it was 0.028 µM; in the assay with pERK in PSN1 cells it was 3.28 µM; in the assay on pERK in ASPC1 cells, 0.339 µM. Besides, the IC50 in the assay on pERK in H727 cells is 0.425 µM; in the assay with pERK in A549 cells, 0.183 µM; in the assay with pERK in HCT116 cells, 0.896 µM.

On to `CCc1c(F)ccc2cc(O)cc(-c3ncc4c(N5CC6C(=O)NC(=O)C6(C)C5)nc(OC[C@@]56CCCN5C[C@H](F)C6)nc4c3F)c12` (stereo partly drawn) [Example 482, 5-(7-(8-ethyl-7-fluoro-3-hydroxynaphthalen-1-yl)-8-fluoro-2-(((2R,7aS)-2-fluorohexahydro-1H-pyrrolizin-7a-yl)methoxy)pyrido[4,3-d]pyrimidin-4-yl)-3a-methyltetrahydropyrrolo[3,4-c]pyrrole-1,3(2H,3aH)-dione], for which the IC50 at KRas G12D was at most 0.002 µM; against KRas G12V it was at most 0.002 µM; on KRas G12R it was 0.003 µM; in the assay with pERK in MKN1 cells, 0.026 µM; in the assay on pERK in PSN1 cells, at least 10 µM; in the assay on pERK in ASPC1 cells it was 0.546 µM. For the same compound, the IC50 in the assay on pERK in H727 cells is 0.128 µM; with pERK in A549 cells it was 0.39 µM; with pERK in H460 cells, 0.124 µM.
